Here are results for 12 molecules from patent US4731241A, “Percutaneous pharmaceuticals preparation for external use” (priority 1983, dated 1988).

Each structure is given as a SMILES string. Like-named read-outs stand apart in the source and are kept apart here.

The format of data set [1] is in vivo, male SD-JCL rats. The settings on record: rat. The protocol: Five male SD-JCL rats with a mean body weight of 250 g were anesthetized with pentobarbital and the abdominal hairs were clipped with an electric clipper (20 cm^2 5×4 cm). Each of coating samples A though D was then coated on the clipped area. At 1, 2, 4 and 6 hours after application (till 8 hours for evaluation of sustained effect), 0.5 ml of venous blood was collected from the tail vain of each rat and the plasma concentration of molsidomine was determined by the following procedure.
In a mixture of 20 mg of lauric acid, which is a percutaneous absorption promotor according to this invention, and 177 mg of propylene glycol was dissolved 3 mg of clonidine to prepare a coating sample. Using this sample, a percutaneous absorption test was conducted in the same manner as Example 1. The plasma concentration of clonidine was determined by the following procedure.
The venous blood was centrifuged and the plasma was separated. A 0.2 ml of the plasma was extracted with 1 ml of 0.01 N NaOH and 5 ml of chloroform, and from 4 ml of the chloroform layer, the chloroform was evaporated. The residue was dissolved in 0.2 ml of a mixture of 0.05 M sodium acetate, acetonitrile and tetrahydrofuran (70:30:0.2, v/v), and 50 μl of this solution was subjected to liquid chromatography to determine the clonidine concentration. A column of μ-Bondapak C18 was employed. The evaluation of percutaneous absorption was carried out in the same manner as described in Example 1. […] Similar tests were conducted using oleic acid, lauryl alcohol, oleinamide and laurylamine as well but all of them were ineffective for clonidine as […].

The conditions of data set [2]: cited from earlier work.
On data set [3], the source says: Then, the present inventors attempted at a systematic classification of compounds which could contribute to the percutaneous absorption of molsidomine and performed a series of experiments.

In the case of `CCCCCCCCCCCCO` [lauryl alcohol], in data set [1] (percutaneous, clonidine), the “effectiveness as percutaneous absorption promoter for clonidine” value (“effectiveness” below) was “ineffective”. The same measure, in the same setting: as for `CCCCCCCCCCCC(=O)O` [lauric acid], the entry is “not effective”.

On to `CCOC(=O)[N-]c1cn(N2CCOCC2)n[o+]1` [molsidomine, N-ethoxycarbonyl-3-morpholinosydnonimine], for which, in data set [2] (background), the side effects result is listed as “few side effects” and the vasodilator activity result was “excellent vasodilator activity”. In addition, the “percutaneous absorption of molsidomine administered alone” value in data set [2] (percutaneous route, alone) is listed as “not well absorbed”. For the molecule `CC(O)CO` (centres unmarked) [propylene glycol], the “promotion of percutaneous absorption of molsidomine” value (from here on “promotion”) in data set [3] (added to molsidomine) is recorded as “none of them proved meaningfully effective”. For the molecule `CCCCCCCC/C=C\CCCCCCCC(N)=O` [oleinamide], in data set [1] (percutaneous, clonidine), the “effectiveness” value is “ineffective”. With `OCC(O)CO` [glycerin], the “promotion” value in data set [3] (added to molsidomine) is “none of them proved meaningfully effective”. As to `CCCCCCCC/C=C\CCCCCCCC(=O)O` [oleic acid], the “effectiveness” value in data set [1] (in vivo) is on record as “ineffective”. For `CCCCCCCCCCCCN` [laurylamine], the “effectiveness” value in data set [1] (percutaneous, clonidine) is listed as “ineffective”. Consider `COC(=O)c1ccccc1O` [methyl salicylate], for which the “promotion” value in data set [3] is on record as “none of them proved meaningfully effective”. Take `OC[C@@H](O)[C@@H](O)[C@H](O)[C@@H](O)CO` [sorbitol]: in data set [3], the “promotion” value was “none of them proved meaningfully effective”. As for `O=C(O)c1ccccc1O` [salicylic acid], the “promotion” value in data set [3] (added to molsidomine) is “none of them proved meaningfully effective”.

Regarding `Clc1cccc(Cl)c1N=C1NCCN1` [clonidine], the “clonidine detection in the blood” value in data set [1] (3 mg clonidine, 20 mg lauric acid, 177 mg propylene glycol, percutaneous) is given as “not detected”.
